Read-outs that look alike come from different tables or passages of the source.
Legend:
human δ receptors [1] = target: T1, human δ receptors (Homo sapiens, UniProt P41143); assay: Binding assay, cloned human δ receptor membranes (125I-Deltorphin II displacement)
T1 construct: expressed in transfected cells

human κ receptors = target: T2, human κ receptors (Homo sapiens, UniProt P41145); assay: Binding assay, cloned human κ receptor membranes (125I-DPDYN displacement)
T2 construct: expressed in transfected cells; host or cells: human 293S cells, geneticin-selected

human δ receptors [2] = target: T1, human δ receptors; assay: GTP[γ]35S binding functional assay, HEK-293S membranes expressing cloned human δ receptors; format: biochemical; details: for Emax: relative to standard δ agonist SNC80
Protocol: (§1) The agonist activity of the compounds is measured by determining the degree to which the compounds receptor complex activates the binding of GTP to G-proteins to which the receptors are coupled. In the GTP binding assay, GTP[γ]^35S is combined with test compounds and membranes from HEK-293S cells expressing the cloned human opioid receptors or from homogenised rat or mouse brain. Agonists stimulate GTP[γ]^35S binding in these membranes. The EC50 and Emax values of compounds are determined from dose-response curves. Right shifts of the dose response curve by the delta antagonist naltrindole are performed to verify that agonist activity is mediated through delta receptors. For human δ receptor functional assays, EC50 (low) is measured when the human δ receptors used in the assay were expressed at lower levels in comparison with those used in determining EC50 (high). The Emax values were determined in relation to the standard δ agonist SNC80, i.e., higher than 100% is a compound that have better efficacy than SNC80.
(§2) Rat brain membranes are thawed at 37° C., passed 3 times through a 25-gauge blunt-end needle and diluted in the GTPγS binding (50 mM Hepes, 20 mM NaOH, 100 mM NaCl, 1 mM EDTA, 5 mM MgCl2, pH 7.4, Add fresh: 1 mM DTT, 0.1% BSA). 120 μM GDP final is added membranes dilutions. The EC50 and Emax of compounds are evaluated from 10-point dose-response curves done in 300 μl with the appropriate amount of membrane protein (20 μg/well) and 100000-130000 dpm of GTPγ^35S per well (0.11-0.14 nM). The basal and maximal stimulated binding are determined in absence and presence of 3 μM SNC-80. The assay performed on HEK 293s cells stably expressing cloned Delta receptors is done in a slightly different buffer (50 mM Hepes, 20 mM NaOH, 200 mM NaCl, 1 mM EDTA, 5 mM MgCl2, pH 7.4, Add fresh: 0.5% BSA, no DTT) and with a 3 μM final conc. of GDP.

[3] = target: T3, δ receptors in rat brain membranes (Rattus norvegicus, UniProt P33533); assay: Rat brain GTP[γ]35S binding functional assay; format: biochemical; details: for Emax: Table 1, rat brain membranes, relative to SNC80
T3 construct: membranes from HEK-293S cells expressing the cloned human opioid receptors or from homogenised rat or mouse brain; from tissue; host or cells: rat brain homogenate membranes
Protocol: Rat brains are weighed and rinsed in ice-cold PBS (containing 2.5 mM EDTA, pH 7.4). The brains are homogenized with a polytron for 30 sec (rat) in ice-cold lysis buffer (50 mM Tris, pH 7.0, 2.5 mM EDTA, with phenylmethylsulfonyl fluoride added just prior use to […] from a 0.5M stock in DMSO:ethanol).
as §1, §2

human μ receptors = target: T4, human μ receptors (Homo sapiens, UniProt P35372); assay: Binding assay, cloned human μ receptor membranes (125I-FK33824 displacement)
T4 construct: expressed in transfected cells; host or cells: human 293S cells, geneticin-selected

[4] = Table 2, read-out: Human κ IC50
[5] = Table 2, lower receptor expression, read-out: Human δ % EMax (low)
[6] = Table 1, higher receptor expression, read-out: Human δ % EMax (high)

T2 sequence (P41145 whole entry): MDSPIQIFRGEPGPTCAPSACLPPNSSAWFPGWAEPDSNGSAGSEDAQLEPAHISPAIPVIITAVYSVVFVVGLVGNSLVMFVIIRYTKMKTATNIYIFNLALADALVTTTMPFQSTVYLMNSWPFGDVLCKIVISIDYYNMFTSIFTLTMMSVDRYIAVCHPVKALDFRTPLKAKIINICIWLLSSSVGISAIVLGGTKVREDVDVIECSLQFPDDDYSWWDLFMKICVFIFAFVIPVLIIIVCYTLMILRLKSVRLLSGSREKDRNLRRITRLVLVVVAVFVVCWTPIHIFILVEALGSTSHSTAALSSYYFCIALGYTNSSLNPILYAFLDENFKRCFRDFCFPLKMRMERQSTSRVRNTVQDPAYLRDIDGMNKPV
T3 sequence (P33533 whole entry): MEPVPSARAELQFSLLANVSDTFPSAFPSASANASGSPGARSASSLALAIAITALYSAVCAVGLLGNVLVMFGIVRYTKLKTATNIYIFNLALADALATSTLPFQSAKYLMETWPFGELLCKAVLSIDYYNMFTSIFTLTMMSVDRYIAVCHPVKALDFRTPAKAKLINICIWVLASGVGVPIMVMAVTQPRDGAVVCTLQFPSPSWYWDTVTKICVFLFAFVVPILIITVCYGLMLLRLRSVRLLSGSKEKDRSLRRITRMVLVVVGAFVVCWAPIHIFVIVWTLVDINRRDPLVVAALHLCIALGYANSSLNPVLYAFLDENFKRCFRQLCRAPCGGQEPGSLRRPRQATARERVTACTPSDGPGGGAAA
T1 sequence (P41143 whole entry): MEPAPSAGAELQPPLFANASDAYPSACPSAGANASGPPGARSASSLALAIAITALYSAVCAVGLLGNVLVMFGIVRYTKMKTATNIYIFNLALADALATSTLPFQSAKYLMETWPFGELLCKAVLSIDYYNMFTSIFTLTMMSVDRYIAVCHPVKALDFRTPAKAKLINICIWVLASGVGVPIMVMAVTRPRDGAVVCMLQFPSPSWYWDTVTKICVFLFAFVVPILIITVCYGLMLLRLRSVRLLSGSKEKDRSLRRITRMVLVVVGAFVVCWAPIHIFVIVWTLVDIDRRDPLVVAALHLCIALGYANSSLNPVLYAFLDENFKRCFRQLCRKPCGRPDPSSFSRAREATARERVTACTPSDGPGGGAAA
T4 sequence (P35372 whole entry): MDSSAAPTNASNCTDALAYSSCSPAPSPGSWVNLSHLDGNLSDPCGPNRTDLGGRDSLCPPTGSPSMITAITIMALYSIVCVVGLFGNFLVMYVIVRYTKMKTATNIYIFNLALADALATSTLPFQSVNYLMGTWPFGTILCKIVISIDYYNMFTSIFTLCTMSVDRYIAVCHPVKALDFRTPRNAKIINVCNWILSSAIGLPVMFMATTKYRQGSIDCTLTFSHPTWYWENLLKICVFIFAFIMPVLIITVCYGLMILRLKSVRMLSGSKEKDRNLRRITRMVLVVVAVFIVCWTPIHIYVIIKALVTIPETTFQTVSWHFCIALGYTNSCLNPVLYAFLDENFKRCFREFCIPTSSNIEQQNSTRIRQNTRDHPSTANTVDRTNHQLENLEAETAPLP

What does the source list for CCN(CC)C(=O)c1ccc(C(=C2CCN(Cc3cccs3)CC2)c2cccc(NC(C)=O)c2)cc1 [Compound 1, 4-{[3-(acetylamino)phenyl][1-(thien-2-ylmethyl)piperidin-4-ylidene]methyl}-N,N-diethylbenzamide]?
IC50 (human δ receptors [1]): 0.00019 to 0.00149 µM; IC50 (human κ receptors; [4]): 5.83 to 9.07 µM; Emax (human δ receptors [2]; [5]): 80 to 112%

CCN(CC)C(=O)c1ccc(C(=C2CCN(Cc3ccco3)CC2)c2cccc(NC(C)=O)c2)cc1 [Compound 2, 4-{[3-(acetylamino)phenyl][1-(2-furylmethyl)piperidin-4-ylidene]methyl}-N,N-diethylbenzamide] was tested. Which IC50 (human δ receptors [1]) did it give?
Its IC50 is 0.00019 to 0.00149 µM.

What about the IC50 (human κ receptors; [4]) of the same compound?
The IC50 was 5.83 to 9.07 µM.

What about the Emax (human δ receptors [2]; [5]) of the same compound?
Its Emax is 80 to 112%.

With CCN(CC)C(=O)c1ccc(C(=C2CCN(Cc3ccccc3)CC2)c2cccc(NC(C)=O)c2)cc1 [Compound 3, 4-[[3-(acetylamino)phenyl][1-(phenylmethyl)-4-piperidinylidene]methyl]-N,N-diethyl-benzamide] as the compound, how does the IC50 (human δ receptors [1]) read?
Its IC50 is 0.00034 to 0.00059 µM.

What about the IC50 (human κ receptors) of the same compound?
Its IC50 is 2.47 to 8 µM.

What about the EC50 [3] of the same compound?
The EC50 was 0.0072 to 0.0158 µM.

What about the Emax [3] of the same compound?
Its Emax is 126 to 137%.

What about the EC50 (human δ receptors [2]) of the same compound?
The EC50 was 0.00146 to 0.00265 µM.

What about the Emax (human δ receptors [2]; [6]) of the same compound?
Its Emax is 95 to 98%.

And the IC50 (human μ receptors)?
The IC50 was 0.344 to 0.368 µM.

Which IC50 (human δ receptors [1]) does the source give for CCN(CC)C(=O)c1ccc(C(=C2CCN(Cc3ccsc3)CC2)c2cccc(NC(C)=O)c2)cc1 [Compound 4, 4-[[3-(acetylamino)phenyl][1-(3-thienylmethyl)-4-piperidinylidene]methyl]-N,N-diethyl-benzamide] here?
Its IC50 is 0.00034 to 0.00059 µM.

What about the IC50 (human κ receptors) of the same compound?
Its IC50 is 2.47 to 8 µM.

What about the EC50 [3] of the same compound?
Its EC50 is 0.0072 to 0.0158 µM.

And the Emax [3]?
Its Emax is 126 to 137%.

What about the EC50 (human δ receptors [2]) of the same compound?
The EC50 was 0.00146 to 0.00265 µM.

What about the Emax (human δ receptors [2]; [6]) of the same compound?
Its Emax is 95 to 98%.

What about the IC50 (human μ receptors) of the same compound?
Its IC50 is 0.344 to 0.368 µM.

What does the source list for CCN(CC)C(=O)c1ccc(C(=C2CCN(Cc3cccnc3)CC2)c2cccc(NC(C)=O)c2)cc1 [Compound 5, 4-[[3-(acetylamino)phenyl][1-(3-pyridinylmethyl)-4-piperidinylidene]methyl]-N,N-diethyl-benzamide]?
IC50 (human δ receptors [1]): 0.00019 to 0.00149 µM; IC50 (human κ receptors): 5.83 to 9.07 µM; Emax (human δ receptors [2]; [5]): 80 to 112%

What does the source list for CCN(CC)C(=O)c1ccc(C(=C2CCN(Cc3ccncc3)CC2)c2cccc(NC(C)=O)c2)cc1 [Compound 6, 4-[[-3-(acetylamino)phenyl][1-(4-pyridinylmethyl)-4-piperidinylidene]methyl]-N,N-diethyl-benzamide]?
IC50 (human δ receptors [1]): 0.00019 to 0.00149 µM; IC50 (human κ receptors): 5.83 to 9.07 µM; Emax (human δ receptors [2]; [5]): 80 to 112%

Which IC50 (human δ receptors [1]) does the source give for CCN(CC)C(=O)c1ccc(C(=C2CCN(Cc3ccccn3)CC2)c2cccc(NC(C)=O)c2)cc1 [Compound 7, 4-{[3-(acetylamino)phenyl][1-(pyridin-2-ylmethyl)piperidin-4-ylidene]methyl}-N,N-diethylbenzamide] here?
The IC50 was 0.00019 to 0.00149 µM.

And the IC50 (human κ receptors; [4])?
The IC50 was 5.83 to 9.07 µM.

What about the Emax (human δ receptors [2]; [5]) of the same compound?
The Emax was 80 to 112%.

CCN(CC)C(=O)c1ccc(C(=C2CCN(Cc3cscn3)CC2)c2cccc(NC(C)=O)c2)cc1 [Compound 8, 4-{[3-(acetylamino)phenyl][1-(1,3-thiazol-4-ylmethel)piperidin-4-ylidene]methyl}-N,N-diethylbenzamide] was tested. Which IC50 (human δ receptors [1]) did it give?
The IC50 was 0.00019 to 0.00149 µM.

And the IC50 (human κ receptors; [4])?
Its IC50 is 5.83 to 9.07 µM.

And the Emax (human δ receptors [2]; [5])?
The Emax was 80 to 112%.

CCN(CC)C(=O)c1ccc(C(=C2CCN(Cc3cncs3)CC2)c2cccc(NC(C)=O)c2)cc1 [Compound 9, 4-{[3-(acetylamino)phenyl][1-(1,3-thiazol-5-ylmethyl)piperidin-4-ylidene]methyl}-N,N-diethylbenzamide] was tested. Which IC50 (human δ receptors [1]) did it give?
Its IC50 is 0.00019 to 0.00149 µM.

And the IC50 (human κ receptors; [4])?
Its IC50 is 5.83 to 9.07 µM.

What about the Emax (human δ receptors [2]; [5]) of the same compound?
Its Emax is 80 to 112%.

Reference: patent US20060154964A1, “Diarylmethylidene piperidine derivatives, preparations thereof and uses thereof” (AstraZeneca AB, priority 2003, published 2006)
